This note sets out measurements from ChEMBL document CHEMBL5537214 (RSC Med Chem, 2024).

As a reminder, the IC50 is the concentration needed to halve the response being measured. The term Papp denotes the rate of passage across a membrane or cell layer, normalised by area and donor concentration. Lower therefore signals poor permeation. As a reminder, the logP is a log measure of how a compound divides between an organic and an aqueous phase. A lower logP goes with a more hydrophilic compound. As a reminder, the logD is lipophilicity at a set pH, counting ionised and neutral species. Higher therefore signals a more lipophilic compound.

The target of data set [1] is Acetylcholinesterase (Electrophorus electricus, UniProt O42275). As to the kind of experiment: Inhibition of electric eel AChE using acetylthiocholine iodide as substrate incubated for 15 mins by Ellman's method. (In general: DTNB colorimetry detects thiols as they appear.)
The nature of the next data set: in vitro. Particulars: PAMPA.
Data set [2] is described as follows: Lipophilicity, log P of the compound. In kind it is physicochemical. Particulars: octanol/water.
A short description of the next data set: physchem. Particulars: octanol/water.
The target of data set [3] is Acetylcholinesterase (Homo sapiens, UniProt P22303).
Description: Inhibition of AChE (unknown origin)

Some results are limits rather than exact numbers.

Acetylcholinesterase (Electrophorus electricus, UniProt O42275), sequence (O42275 whole entry): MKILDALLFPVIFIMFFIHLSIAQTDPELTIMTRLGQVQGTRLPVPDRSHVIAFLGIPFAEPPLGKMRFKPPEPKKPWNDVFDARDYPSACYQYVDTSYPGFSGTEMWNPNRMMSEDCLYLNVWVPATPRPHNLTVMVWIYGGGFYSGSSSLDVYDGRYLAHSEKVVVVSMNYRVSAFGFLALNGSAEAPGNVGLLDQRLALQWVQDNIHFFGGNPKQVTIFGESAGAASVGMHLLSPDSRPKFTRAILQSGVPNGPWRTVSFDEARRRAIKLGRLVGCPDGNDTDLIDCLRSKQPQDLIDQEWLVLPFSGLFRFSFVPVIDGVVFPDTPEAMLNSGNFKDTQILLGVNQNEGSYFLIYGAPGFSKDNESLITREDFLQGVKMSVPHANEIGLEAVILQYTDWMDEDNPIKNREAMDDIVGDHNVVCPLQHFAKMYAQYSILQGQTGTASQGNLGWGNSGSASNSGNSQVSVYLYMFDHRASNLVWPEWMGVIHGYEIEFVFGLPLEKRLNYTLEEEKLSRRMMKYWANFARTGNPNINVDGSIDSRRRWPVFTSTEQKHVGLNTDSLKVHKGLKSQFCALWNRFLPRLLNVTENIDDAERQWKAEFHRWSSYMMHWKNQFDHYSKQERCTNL
Acetylcholinesterase (Homo sapiens, UniProt P22303), sequence (P22303 whole entry): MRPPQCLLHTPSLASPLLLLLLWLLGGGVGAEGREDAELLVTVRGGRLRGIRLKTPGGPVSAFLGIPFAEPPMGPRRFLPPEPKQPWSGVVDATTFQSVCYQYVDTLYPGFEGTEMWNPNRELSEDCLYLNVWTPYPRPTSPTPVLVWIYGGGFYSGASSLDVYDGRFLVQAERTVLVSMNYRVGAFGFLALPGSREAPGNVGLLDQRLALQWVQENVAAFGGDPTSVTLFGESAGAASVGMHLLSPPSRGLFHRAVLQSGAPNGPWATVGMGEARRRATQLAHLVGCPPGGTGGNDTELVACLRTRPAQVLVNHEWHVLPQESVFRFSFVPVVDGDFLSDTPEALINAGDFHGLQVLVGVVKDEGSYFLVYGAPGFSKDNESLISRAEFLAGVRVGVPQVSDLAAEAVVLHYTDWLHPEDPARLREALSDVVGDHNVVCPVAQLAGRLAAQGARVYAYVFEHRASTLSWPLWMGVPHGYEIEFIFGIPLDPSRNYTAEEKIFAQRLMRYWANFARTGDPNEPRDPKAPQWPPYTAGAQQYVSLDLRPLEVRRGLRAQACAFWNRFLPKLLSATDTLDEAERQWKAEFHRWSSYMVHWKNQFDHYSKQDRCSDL
Description for physchem: Lipophilicity, log D of compound

`O=C1c2ccccc2C(=O)N1CCC1CCN(Cc2ccccc2)CC1` returned a concentration for half-maximal inhibition (IC50) against Acetylcholinesterase [1] of 0.0132 µM.

The compound `COc1cc2c(cc1OC)C(=O)C(CC1CCNCC1)C2` (centres undefined) gave an IC50 against Acetylcholinesterase [1] of 9.45 µM. This IC50 lies about 720-fold higher than the previous one.

Regarding `COc1cc2c(cc1OC)C(=O)C(CC1CCN(C(=O)c3ccccc3)CC1)C2` (centres undefined), 17.9 µM corresponded to half-maximal inhibition on Acetylcholinesterase [1] (IC50).

On Acetylcholinesterase [1], `COc1cc2c(cc1OC)C(=O)C(CC1CCN(CCN)CC1)C2` (centres undefined) yielded a concentration for half-maximal inhibition (IC50) of 11.2 µM.

For `Nc1ccc(CN2CCC(CCN3C(=O)c4ccccc4C3=O)CC2)cc1`, it took 0.327 µM to reach half-maximal inhibition on Acetylcholinesterase [1] (IC50).

For the compound `Nc1cccc(CN2CCC(CCN3C(=O)c4ccccc4C3=O)CC2)c1`, in “in vitro”, the Papp at 8 h was found to be 2.9 ×10⁻⁶ cm/s. On Acetylcholinesterase [1], the concentration for half-maximal inhibition (IC50) worked out at 0.15 µM.

Regarding `O=C1c2ccccc2C(=O)N1CC1CCN(Cc2ccccc2)CC1`, the Papp at 8 h in the data set “in vitro” came out at 10.7 ×10⁻⁶ cm/s. The half-maximal inhibitory concentration (IC50) against Acetylcholinesterase [1] was 22.8 µM.

For `COc1cc2c(cc1OC)C(=O)C(CC1CCN(Cc3cccc(NC(=O)c4ccccc4)c3)CC1)C2` (centres undefined), the half-inhibitory concentration (IC50) against Acetylcholinesterase [1] was found to be 22.8 µM.

In the data set “in vitro”, `COc1cc2c(cc1OC)C(=O)C(CC1CCN(Cc3cccc(CN)c3)CC1)C2` (centres undefined) came in with an apparent permeability coefficient (Papp) at 8 h of 1.5 ×10⁻⁶ cm/s. 1.03 µM corresponded to half-maximal inhibition against Acetylcholinesterase [1] (IC50).

In turn, `COc1cc2c(cc1OC)C(=O)C(CC1CCN(CCCN)CC1)C2` (centres undefined) gave an IC50 against Acetylcholinesterase [1] of 10.8 µM.

On to `COc1cc2c(cc1OC)C(=O)C(CC1CCN(CCCCN)CC1)C2` (centres undefined), for which the IC50 against Acetylcholinesterase [1] amounted to 14.6 µM.

`O=C(c1ccccc1)N1CCC(CCN2C(=O)c3ccccc3C2=O)CC1`: the IC50 at Acetylcholinesterase [1] was found to be 63 µM.

In the case of `COc1cc2c(cc1OC)C(=O)C(CC1CCN(Cc3ccc(C(=O)O)cc3)CC1)C2` (centres undefined), the concentration for half-maximal inhibition (IC50) against Acetylcholinesterase [1] is 72.2 µM.

For `NCc1cccc(CN2CCC(CCN3C(=O)c4ccccc4C3=O)CC2)c1`, in the data set “in vitro”, the Papp at 8 h was determined as 1.4 ×10⁻⁶ cm/s. This compound also showed an IC50 on Acetylcholinesterase [1] of 0.299 µM.

At Acetylcholinesterase [1], `NCc1ccc(CN2CCC(CCN3C(=O)c4ccccc4C3=O)CC2)cc1` registered a concentration for half-maximal inhibition (IC50) of 1.54 µM.

As to `COc1cc2c(cc1OC)C(=O)C(CC1CCN(Cc3ccc(N)cc3)CC1)C2` (centres undefined), at Acetylcholinesterase [1], half-maximal inhibition (IC50) required 0.0991 µM.

Turning to `COc1cc2c(cc1OC)C(=O)C(CC1CCN(Cc3ccc(CN)cc3)CC1)C2` (centres undefined), on Acetylcholinesterase [1], the IC50 came out at 5.8 µM.

Compound `Nc1ccc(CN2CCC(CN3C(=O)c4ccccc4C3=O)CC2)cc1` showed a 50% inhibitory concentration (IC50) against Acetylcholinesterase [1] of 25.2 µM.

The compound `COc1cc2c(cc1OC)C(=O)C(CC1CCN(Cc3cccc(N)c3)CC1)C2` (centres undefined) gave an apparent permeability coefficient (Papp) at 8 h in the data set “in vitro” of 3.7 ×10⁻⁶ cm/s. In addition, the midpoint of inhibition against Acetylcholinesterase [1], the IC50, lay at 0.0473 µM.

In data set [2], `COc1cc(O)c(C(=O)Nc2nc(C(=O)NCCN(C(C)C)C(C)C)cs2)cc1OC` [ACOTIAMIDE] gave a logP below 2. The compound further came in with a logD in “physchem” of 0.7. Moreover, 3 µM corresponded to half-maximal inhibition against Acetylcholinesterase [3] (IC50).

For `Clc1cccc(Cl)c1N=C1NCCN1` [CLONIDINE], the apparent permeability coefficient (Papp) at 8 h in “in vitro” is 12.2 ×10⁻⁶ cm/s.

With `NCCc1ccc(O)c(O)c1` [DOPAMINE], the apparent permeability coefficient (Papp) at 8 h in “in vitro” was determined as 3.3 ×10⁻⁶ cm/s.
